Results from ChEMBL document CHEMBL4392834, “Polymorphs, co-crystal structure and pharmacodynamics study of MBRI-001, a deuterium-substituted plinabulin derivative as a tubulin polymerization inhibitor” (Bioorg Med Chem, 2019).

How the values were obtained:
A549 [1] = experiment: Cytotoxicity in human A549 cells assessed as reduction in cell viability incubated for 72 hrs by MTT assay; format: functional, cell-based; details: A549, 72 h
NCI-H1975 [2] = experiment: Cytotoxicity in human NCI-H1975 cells assessed as reduction in cell viability incubated for 72 hrs by MTT assay; format: functional, cell-based; details: NCI-H1975, 72 h
[3] = Toxicity in Balb/c nude mouse dosed intravenously every 3 days for consecutive 21 days; format: organism-based; details: in vivo, iv
A549 [4] = experiment: Antiproliferative activity in human A549 cells assessed as inhibition of cell proliferation at 1.5625 nM incubated for 72 hrs by MTT assay; format: functional; details: A549, 72 h
A549 [5] = experiment: Antiproliferative activity in human A549 cells assessed as inhibition of cell proliferation at 3.125 nM incubated for 72 hrs by MTT assay; format: functional; details: A549, 72 h
A549 [6] = experiment: Antiproliferative activity in human A549 cells assessed as inhibition of cell proliferation at 6.25 nM incubated for 72 hrs by MTT assay; format: functional; details: A549, 72 h
A549 [7] = experiment: Antiproliferative activity in human A549 cells assessed as inhibition of cell proliferation at 12.5 nM incubated for 72 hrs by MTT assay; format: functional; details: A549, 72 h
A549 [8] = experiment: Antiproliferative activity in human A549 cells assessed as inhibition of cell proliferation at 25 nM incubated for 72 hrs by MTT assay; format: functional; details: A549, 72 h
A549 [9] = experiment: Antiproliferative activity in human A549 cells assessed as inhibition of cell proliferation at 50 nM incubated for 72 hrs by MTT assay; format: functional; details: A549, 72 h
NCI-H1975 [10] = experiment: Antiproliferative activity in human NCI-H1975 cells assessed as inhibition of cell proliferation at 1.5625 nM incubated for 72 hrs by MTT assay; format: functional; details: NCI-H1975, 72 h
NCI-H1975 [11] = experiment: Antiproliferative activity in human NCI-H1975 cells assessed as inhibition of cell proliferation at 3.125 nM incubated for 72 hrs by MTT assay; format: functional; details: NCI-H1975, 72 h
NCI-H1975 [12] = experiment: Antiproliferative activity in human NCI-H1975 cells assessed as inhibition of cell proliferation at 6.25 nM incubated for 72 hrs by MTT assay; format: functional; details: NCI-H1975, 72 h
NCI-H1975 [13] = experiment: Antiproliferative activity in human NCI-H1975 cells assessed as inhibition of cell proliferation at 12.5 nM incubated for 72 hrs by MTT assay; format: functional; details: NCI-H1975, 72 h
NCI-H1975 [14] = experiment: Antiproliferative activity in human NCI-H1975 cells assessed as inhibition of cell proliferation at 25 nM incubated for 72 hrs by MTT assay; format: functional; details: NCI-H1975, 72 h
NCI-H1975 [15] = experiment: Antiproliferative activity in human NCI-H1975 cells assessed as inhibition of cell proliferation at 50 nM incubated for 72 hrs by MTT assay; format: functional; details: NCI-H1975, 72 h
A549 [16] = experiment: Antitumor activity against human A549 cells xenografted in Balb/c nude mouse assessed as tumor volume at 12 mg/kg, iv dosed as Q3D x 3 weeks regime relative to untreated control; format: functional
A549 [17] = experiment: Antitumor activity against human A549 cells xenografted in Balb/c nude mouse assessed as tumor volume at 6 mg/kg, iv dosed as Q3D x 3 weeks regime relative to untreated control; format: functional
A549 [18] = experiment: Antitumor activity against human A549 cells xenografted in Balb/c nude mouse assessed as tumor volume at 3 mg/kg, iv dosed as Q3D x 3 weeks regime relative to untreated control; format: functional
A549 [19] = experiment: Antitumor activity against human A549 cells xenografted in Balb/c nude mouse assessed as tumor weight at 12 mg/kg, iv dosed as Q3D x 3 weeks regime (reference value: 0.596 +/- 0.042 g); format: functional
A549 [20] = experiment: Antitumor activity against human A549 cells xenografted in Balb/c nude mouse assessed as tumor weight at 6 mg/kg, iv dosed as Q3D x 3 weeks regime (reference value: 0.596 +/- 0.042 g); format: functional
A549 [21] = experiment: Antitumor activity against human A549 cells xenografted in Balb/c nude mouse assessed as tumor weight at 3 mg/kg, iv dosed as Q3D x 3 weeks regime (reference value: 0.596 +/- 0.042 g); format: functional
[22] = Toxicity in human A549 cells xenografted Balb/c nude mouse assessed as body weight change weight at 12 mg/kg, iv dosed on day 0, 3, 6, 9, 12, 15 and 18 regime (reference value: 6.96%); format: organism-based; details: in vivo
[23] = Toxicity in human A549 cells xenografted Balb/c nude mouse assessed as body weight change weight at 6 mg/kg, iv dosed on day 0, 3, 6, 9, 12, 15 and 18 regime (reference value: 6.96%); format: organism-based; details: in vivo
[24] = Toxicity in human A549 cells xenografted Balb/c nude mouse assessed as body weight change weight at 3 mg/kg, iv dosed on day 0, 3, 6, 9, 12, 15 and 18 regime (reference value: 6.96%); format: organism-based; details: in vivo
A549 [25] = experiment: Antitumor activity against human A549 cells xenografted in Balb/c nude mouse assessed as tumor volume at 10 mg/kg, iv dosed as QW x 3 weeks regime relative to untreated control; format: functional
A549 [26] = experiment: Antitumor activity against human A549 cells xenografted in Balb/c nude mouse assessed as tumor weight at 10 mg/kg, iv dosed as QW x 3 weeks regime (reference value: 0.596 +/- 0.042 g); format: functional
[27] = Toxicity in human A549 cells xenografted Balb/c nude mouse assessed as body weight change weight at 10 mg/kg, iv dosed on day 0, 7 and 14 (reference value: 6.96%); format: organism-based; details: in vivo
Tubulin (Homo sapiens) = Tubulin (Homo sapiens) (UniProt P68371+Q9H4B7+P0DPH7+P68366+Q13509+Q71U36+P04350+Q3ZCM7+P07437+P68363+Q9BQE3+Q6PEY2+Q13885+Q9BVA1+Q9BUF5); experiment: Inhibition of tubulin (unknown origin) polymerization at 5 uM; format: protein-complex assay

SMILES	IC50 (A549 [1])	IC50 (NCI-H1975 [2])	inhibition at 0.0015625 µM (A549 [4])	inhibition at 0.003125 µM (A549 [5])	inhibition at 0.00625 µM (A549 [6])	inhibition at 0.0125 µM (A549 [7])	inhibition at 0.025 µM (A549 [8])	inhibition at 0.05 µM (A549 [9])	inhibition at 0.0015625 µM (NCI-H1975 [10])	inhibition at 0.003125 µM (NCI-H1975 [11])	inhibition at 0.00625 µM (NCI-H1975 [12])	inhibition at 0.0125 µM (NCI-H1975 [13])	inhibition at 0.025 µM (NCI-H1975 [14])	inhibition at 0.05 µM (NCI-H1975 [15])	T/C (A549 [16])	T/C (A549 [17])	Activity (A549 [19])	Activity (A549 [20])	Activity [22]	Activity [23]	other results
[2H]/C(c1nc[nH]c1C(C)(C)C)=c1/[nH]c(=O)/c(=C/c2ccccc2)[nH]c1=O	2.5 nM	9.3 nM	0.92 to 9.22%	54.8 to 61.6%	82 to 86.7%	83.2 to 86.3%	88 to 88.7%	83.2 to 87.9%	2.75 to 10.3%	3.64 to 12.3%	12.3 to 22.6%	70.7 to 81.7%	90.4 to 91.5%	90.8 to 91.7%	54.39%	59.01%	0.308 g	0.344 g	2.36%	6.78%	LD50 at 21 days [3]: 18.9 mg/kg; T/C (A549 [18]): 70.88%; Activity (A549 [21]): 0.442 g; Activity [24]: 6.75%
CC(=O)O[C@@]12CO[C@@H]1C[C@H](O)[C@@]1(C)C(=O)[C@H](O)C3=C(C)[C@@H](OC(=O)[C@H](O)[C@@H](NC(=O)OC(C)(C)C)c4ccccc4)C[C@@](O)([C@@H](OC(=O)c4ccccc4)[C@H]21)C3(C)C [DOCETAXEL ANHYDROUS]	–	–	–	–	–	–	–	–	–	–	–	–	–	–	–	–	–	–	–	–	T/C (A549 [25]): 26.5%; Activity (A549 [26]): 0.13 g; Activity [27]: -0.66%
CC(C)(C)c1[nH]cnc1/C=c1\[nH]c(=O)/c(=C/c2ccccc2)[nH]c1=O [PLINABULIN]	3.5 nM	10.2 nM	23.3 to 29.4%	42.5 to 50.8%	88 to 88.7%	85.1 to 88.9%	88.4 to 89.5%	86.6 to 89.2%	1.03 to 11.2%	3.89 to 15.5%	13.3 to 25.7%	61.1 to 69.1%	86.3 to 90.8%	88.7 to 91.3%	56.7%	61.48%	0.327 g	0.349 g	6.33%	5.66%	inhibition (Tubulin (Homo sapiens)): 27.9%; inhibition (Tubulin (Homo sapiens); tested as the 2H-labelled form): 30.1%
